# Assay results as given in patent US20080009532A1, “Antimicrobially Finished Solid Preparations” (priority 2005, published 2008).
# Tested on: mixture of bacterial species: Pseudomonas aeruginosa, Pseudomonas fluorescens, Pseudomonas oleovorans, Pseudomonas rubescens, Pseudomonas stutzeri, Alcaligenes …
# Experiment: Microbiological stress test (preservation stress test) in calcium carbonate slurry
# Type: cell-based
# Conditions: calcium carbonate slurry (solids 70-75%), 3 days 60° C. pre-stress, weekly contamination
# Method: Microbiological Stress Test The microbiological stress test examines the susceptibility of water-based systems to microbial attack and the efficacy of preservatives. To this end, defined concentrations of the preservatives are incorporated into the water-based systems. To simulate reality-like conditions, depending on the medium to be examined, the sample may be stored at elevated temperatures (for example for 7 days at 40° C., for 3 days at 60° C. or the like) prior to carrying out the actual preservation test, in order to evaluate the preservatives to be tested under conditions which are as realistic as possible. After the preliminary work has been concluded, there is, at weekly intervals, a contamination with microorganisms of a defined type over a test period of at most 6 weeks. 2-3 and 7 days after each contamination it is established by germ number determination, whether there has been a complete kill or at least an inhibition of proliferation of the microorganisms introduced, compared to the non-preserved control samples. On account of the microorganism populations known to predominate in mineral suspensions and dispersions, for the experiment, a mixture of the following bacterial species was used for the test: Pseudomonas aeruginosa Pseudomonas fluorescens Pseudomonas oleovorans Pseudomonas rubescens Pseudomonas stutzeri Alcaligenes faecalis Citrobacter freundii Corynebacterium sp. Very good efficacy is achieved when the preserved samples effect a kill of the microorganisms introduced even after 6 contamination cycles. […] Using a calcium carbonate slurry (solids content 70-75%), a preservation stress test was carried out in accordance with the above scheme. After incorporation of the respective biocide products at the stated concentrations, the samples were exposed to thermal stress at 60° C. for 3 days in order to identify unstable active compound components in the biocide products even at this phase of the experiment by subsequent loss of activity.
compound,measurement,setting,value
"O=c1[nH]sc2ccccc12 [benzisothiazolinone, 1,2-benzisothiazolin-3-one]",Preservation state Week 1,100 ppm,ok
same,Preservation state Week 2,100 ppm,spoilt
same,Preservation state Week 3,100 ppm,spoilt
same,Preservation state Week 4,100 ppm,spoilt
same,Preservation state Week 5,100 ppm,spoilt
same,Preservation state Week 6,100 ppm,spoilt
same,Preservation state Week 1,150 ppm,ok
same,Preservation state Week 2,150 ppm,ok
same,Preservation state Week 3,150 ppm,spoilt
same,Preservation state Week 4,150 ppm,spoilt
same,Preservation state Week 5,150 ppm,spoilt
same,Preservation state Week 6,150 ppm,spoilt
same,Preservation state Week 1,200 ppm,ok
same,Preservation state Week 2,200 ppm,ok
same,Preservation state Week 3,200 ppm,ok
same,Preservation state Week 4,200 ppm,spoilt
same,Preservation state Week 5,200 ppm,spoilt
same,Preservation state Week 6,200 ppm,spoilt
